Measurements taken from the Deep4Chem optical property database.

Assay: solvent given as SMILES
Conditions: in CO

| SMILES | emission maximum [nm] |
| --- | --- |
| Cn1c(=O)c(/N=N/c2ccc(S(=O)(=O)O)c3ccccc23)c(O)c2ccccc21 | 562 |
| C(/C=C/c1cc2c3c(c1)CCCN3CCC2)=C\c1ccncc1 | 583 |
| c1ccc2cc(-n3c4ccccc4c4ccccc43)ccc2c1 | 382 |
| CCC1=C(C)C2=C(C)c3cc(I)c(I)n3[B-](F)(F)[N+]2=C1C | 546 |
| CCC1=C(C)C2=Cc3cc(I)c(I)n3[B-](F)(F)[N+]2=C1C | 552 |
| c1ccc(-c2c3c(c(-c4ccccc4)c4cc5ccccc5cc24)Cc2c(c(-c4ccccc4)c4cc5ccccc5cc4c2-c2ccccc2)C3)cc1 | 398 |

Continued, values first:

| emission maximum [nm] | SMILES |
| --- | --- |
| 580 | COC(=O)COc1ccc(/C=C/C2=[N+]3C(=C(c4ccc(N(C)C)cc4)c4c(C)cc(C)n4[B-]3(F)F)C(C)=C2)cc1 |
| 496 | Cc1cccc(-c2[nH]c(=O)n3c2-c2ccccc2C3=O)c1O |
| 607 | Cc1nc2c(ccc3c2sc(/C=C/c2ccc(-n4c5ccccc5c5ccccc54)cc2)[n+]3C)s1 |
| 368 | COc1cccc(-n2c(-c3ccccc3)nc(C)c2C)c1 |
| 414.5 | O=C(O)c1ccc(-c2nc(-c3ccccc3)c(-c3ccccc3)[nH]2)cc1 |
| 475 | COc1ccccc1-c1nc(-c2ccccc2)c2ccccn12 |

Same assay, conditions: in CS(C)=O

| SMILES | emission maximum [nm] |
| --- | --- |
| Cn1c(=O)c(/N=N/c2ccc(S(=O)(=O)O)c3ccccc23)c(O)c2ccccc21 | 571 |
| Cc1cc(C)c(B(c2ccc(-c3nc4c5ccccc5c5ccccc5c4[nH]3)cc2)c2c(C)cc(C)cc2C)c(C)c1 | 484 |

The remaining lines, values ahead:

| emission maximum [nm] | SMILES |
| --- | --- |
| 502 | Cc1cccn2c1cc1c3ccccc3nc(-c3ccco3)c12 |
| 497 | Brc1ccc(N/C=C/C=[NH+]c2ccc(Br)cc2)cc1 |
| 692 | COc1cc(OC)cc(C2=C3C(C)=C(I)C(/C=C/c4ccsc4)=[N+]3[B-](F)(F)n3c(/C=C/c4ccsc4)c(I)c(C)c32)c1 |

Same assay, conditions: in Cc1ccccc1

| SMILES | emission maximum [nm] |
| --- | --- |
| c1ccc(N2c3ccc4ccccc4c3-c3c4ccccc4cc[n+]3[B-]2(c2ccccc2)c2ccccc2)cc1 | 623 |
| Cn1c(=O)c(/N=N/c2ccc(S(=O)(=O)O)c3ccccc23)c(O)c2ccccc21 | 540 |
| c1ccc2c(c1)-c1ccccc1C21c2ccccc2N(c2ccc(-c3nc([C@]45CC6CC(C[C@@H](C6)C4)C5)nc([C@]45C[C@H]6C[C@@H](C[C@H](C6)C4)C5)n3)cc2)c2ccccc21 | 454.71 |
| c1ccc2cc(-n3c4ccccc4c4ccccc43)ccc2c1 | 364 |
| CCCCC1(c2ccc(OC)cc2)Nc2ccccc2N=C1c1ccc(OC)cc1 (stereo unspecified) | 501 |
| O=c1c2cc(-n3c4ccccc4c4ccccc43)ccc2sc2ccc(-n3c4ccccc4c4ccccc43)cc12 | 455.5 |
| Cc1cc(C)c(B(c2ccc(-c3nc4c5ccccc5c5ccccc5c4[nH]3)cc2)c2c(C)cc(C)cc2C)c(C)c1 | 435 |
| Cc1ccc2c(c1)C(c1ccccc1)(c1ccccc1)c1cc(C)ccc1N2c1ccc2c(c1)N(c1ccccc1)c1ccccc1B2c1c(C(C)C)cc(C(C)C)cc1C(C)C | 449 |
| CCCCC1(CCCC)c2cc(C#Cc3ccc4ccc5cccc6ccc3c4c56)ccc2-c2ccc(C#Cc3ccc4ccc5cccc6ccc3c4c56)cc21 | 438 |
| CC1(C)c2ccccc2N(c2ccc3c(c2)c2cc(N4c5ccccc5C(C)(C)c5ccccc54)ccc2c2nc(C#N)c(C#N)nc32)c2ccccc21 | 678 |
| c1ccc(-c2c3c(c(-c4ccccc4)c4cc5ccccc5cc24)Cc2c(c(-c4ccccc4)c4cc5ccccc5cc4c2-c2ccccc2)C3)cc1 | 402 |

Same assay, conditions: in ClC(Cl)(Cl)Cl

| SMILES | emission maximum [nm] |
| --- | --- |
| CC(=O)[B-]1(C(C)=O)OC(c2ccccc2)=CC(c2ccccc2)=[O+]1 | 402 |

Same assay, conditions: in ClC(Cl)Cl

| SMILES | emission maximum [nm] |
| --- | --- |
| CCCCCCCCCCCCOc1cc2c3c(ccc4c5c(NC6CCCCC6)cc6c7c(ccc(c1c34)c75)C(=O)N(C1CCCCC1)C6=O)C(=O)N(C1CCCCC1)C2=O | 722 |
| c1ccc2cc(-n3c4ccccc4c4ccccc43)ccc2c1 | 376 |
| CCCCC1(c2ccc(OC)cc2)Nc2ccccc2N=C1c1ccc(OC)cc1 (stereo unspecified) | 507 |
| O=c1c2cc(-n3c4ccccc4c4ccccc43)ccc2sc2ccc(-n3c4ccccc4c4ccccc43)cc12 | 493.5 |
| CCCCC1(CCCC)c2cc(C#Cc3ccc4ccc5cccc6ccc3c4c56)ccc2-c2ccc(C#Cc3ccc4ccc5cccc6ccc3c4c56)cc21 | 439 |

Now from value to compound:

| emission maximum [nm] | SMILES |
| --- | --- |
| 500 | CN(C)c1ccc(/C=C/c2ccc(-c3nc(C#N)c(C#N)n3C)cc2)cc1 |
| 638 | Cc1nc2c(ccc3c2sc(/C=C/c2ccc(-n4c5ccccc5c5ccccc54)cc2)[n+]3C)s1 |
| 418 | CCCCn1c2ccc(-c3ccc4ccccc4c3)cc2c2ccc3c4cc(-c5ccc6ccccc6c5)ccc4n(CCCC)c3c21 |
| 366 | COc1cccc(-n2c(-c3ccccc3)nc(C)c2C)c1 |
| 469 | COc1ccc(-c2ncc3ccccn23)cc1 |
| 402 | CCCCn1c2ccccc2c2ccc3c4cc(-c5ccc(C(F)(F)F)cc5)ccc4n(CCCC)c3c21 |

Same assay, conditions: in ClCCl

| SMILES | emission maximum [nm] |
| --- | --- |
| C(=C\c1cnccn1)/c1ccc2nccnc2c1 | 417 |
| C(S/C=C/c1ccc(/C=C/SC=C2CCCCCC2)cc1)=C1CCCCCC1 | 422 |
| Cn1c(=O)c(/N=N/c2ccc(S(=O)(=O)O)c3ccccc23)c(O)c2ccccc21 | 541 |
| O=c1c2cc(-n3c4ccccc4c4ccccc43)ccc2sc2ccc(-n3c4ccccc4c4ccccc43)cc12 | 495 |
| Cc1cc(C)c(B(c2ccc(-c3nc4c5ccccc5c5ccccc5c4[nH]3)cc2)c2c(C)cc(C)cc2C)c(C)c1 | 454 |
| CCCCC1(CCCC)c2cc(C#Cc3ccc4ccc5cccc6ccc3c4c56)ccc2-c2ccc(C#Cc3ccc4ccc5cccc6ccc3c4c56)cc21 | 439 |
| c1ccc(-c2c3c(c(-c4ccccc4)c4cc5ccccc5cc24)Cc2c(c(-c4ccccc4)c4cc5ccccc5cc4c2-c2ccccc2)C3)cc1 | 402 |

The next lines start with the values.

| emission maximum [nm] | SMILES |
| --- | --- |
| 531 | O=Cc1cnc(-c2c3ccccc3cc3ccccc23)nc1 |
| 473 | Cc1cccc(-c2[nH]c(=O)n3c2-c2ccccc2C3=O)c1O |
| 461 | C1=Cc2ccc(N(c3ccccc3)c3ccccc3)cc2C2(c3cc(N(c4ccccc4)c4ccccc4)ccc31)c1ccccc1-c1ccccc12 |
| 537 | COC(=O)c1cc(=O)n(C)c2cc(-c3ccccc3N(C)C)sc12 |
| 508 | c1ccc(N2N=C(c3ccc4ccc5cccc6ccc3c4c56)CC2c2ccc3ccc4cccc5ccc2c3c45)cc1 (stereo unspecified) |
| 375 | C[Si]1(C)c2ccc(C#Cc3ccccc3)cc2C=Cc2cc(C#Cc3ccccc3)ccc21 |
| 471 | COc1ccc2ccccc2c1C1=CC(c2ccccc2)=C(c2ccccc2)C1 |
| 364 | COc1cccc(-n2c(-c3ccccc3)nc(C)c2C)c1 |
| 575 | Cc1cn2cc(-c3ccc([N+](=O)[O-])cc3)[n-][n+]2c1 |
| 384 | COc1ccc(-c2cc(-c3ccc(C#N)cc3)nn2C)cc1 |
| 682 | COc1cc(OC)cc(C2=C3C(C)=C(I)C(/C=C/c4ccsc4)=[N+]3[B-](F)(F)n3c(/C=C/c4ccsc4)c(I)c(C)c32)c1 |
| 508 | COc1ccc(C#Cc2nc3ccccc3nc2-c2csc(OC)c2)cc1 |
| 418 | c1ccc(B2Nc3cc4c(cc3-c3sc5ccccc5c32)NB(c2ccccc2)c2c-4sc3ccccc23)cc1 |
| 479 | COc1ccccc1-c1nc(-c2ccccc2)c2ccccn12 |

Same assay, conditions: in O

| emission maximum [nm] | SMILES |
| --- | --- |
| 535 | NNC(=O)N1C(=O)c2cc(S(=O)(=O)[O-])cc3c(N)c(S(=O)(=O)[O-])cc(c23)C1=O |
| 527 | COC(=O)c1ccccc1-c1c2ccc(=[NH2+])cc-2oc2cc(N)ccc12 |
| 481 | COc1ccccc1-c1nc(-c2ccccc2)c2ccccn12 |

| SMILES | emission maximum [nm] |
| --- | --- |
| Cn1c(=O)c(/N=N/c2ccc(S(=O)(=O)O)c3ccccc23)c(O)c2ccccc21 | 582 |

Same assay, conditions: in O=P(c1ccccc1)(c1ccccc1)c1ccc2oc3ccc(P(=O)(c4ccccc4)c4ccccc4)cc3c2c1

| SMILES | emission maximum [nm] |
| --- | --- |
| Cc1ccc2c(c1)C(c1ccccc1)(c1ccccc1)c1cc(C)ccc1N2c1ccc2c(c1)N(c1ccccc1)c1ccccc1B2c1c(C(C)C)cc(C(C)C)cc1C(C)C | 465 |

Same assay, conditions: in O=P(c1ccccc1)(c1ccccc1)c1cccc(-c2cc(-n3c4ccccc4c4ccccc43)cc(-n3c4ccccc4c4ccccc43)c2)n1

| SMILES | emission maximum [nm] |
| --- | --- |
| CC1(C)c2ccccc2N(c2ccc3c(c2)c2cc(N4c5ccccc5C(C)(C)c5ccccc54)ccc2c2nc(C#N)c(C#N)nc32)c2ccccc21 | 618 |

Same assay, conditions: in OCC(F)(F)F

| SMILES | emission maximum [nm] |
| --- | --- |
| CCC1=C(C)C2=C(C)c3cc(I)c(I)n3[B-](F)(F)[N+]2=C1C | 542.5 |
| CCC1=C(C)C2=Cc3cc(I)c(I)n3[B-](F)(F)[N+]2=C1C | 548 |

Same assay, conditions: in c1ccccc1

| emission maximum [nm] | SMILES |
| --- | --- |
| 410 | C(=C\c1cnccn1)/c1ccc2nccnc2c1 |
| 372 | COc1cccc(-n2c(-c3ccccc3)nc(C)c2C)c1 |
